Measurements reported in patent US7488576B2, “Methods for diagnosis and treatment of psychiatric disorders” (The Regents of the University of California, priority 2000, dated 2009).
“And” between values parts separate entries of the source, which are not always exact repeats. Equal entries are not always repeated.

Columns and labels:
GRK3 = test: Gene expression in rat brain after stimulant treatment (Affymetrix U34A GeneChip), prefrontal cortex; conditions: 24 h, read-out: Fold Induction of GRK3
Experimental: (§1) In experiments conducted during the development of the present invention, the rat animal model was used. This model is commonly accepted by those in the art for experiments involving psychiatric disorders. In some experiments, rats were treated with a single dose of methamphetamine (4 mg/kg) and sacrificed 24 hours later. This timepoint was chosen as that most likely to detect changes of relevance to mania and psychosis. It was hypothesized that at 24 hours, most short term gene induction relevant to acute intoxication and behavioral activation would have subsided. […] As mania and psychosis are typically chronic processes in man, more persistent gene changes are more likely to be central to pathophysiological mechanisms. Gene expression was examined in the prefrontal cortex and amygdala, using the Afymetrix U34A GeneChip, which interrogates approximately 7,000 known genes and 1,000 ESTs (expressed sequence tags) using an oligonucleotide nicroarray (See, Lipshutz et al., Nat. Genet. 21:20 [1999]). These brain regions were chosen based on the extensive literature that highlights their central role in cognition and emotion (See e.g., Heimer and Alheid, Adv. Exp. Med. Biol. 1:295 [1991]).
(§2) A two-fold increase or decrease in expression was chosen as a conventional empirical cut-off. Thus, at least a two-fold change in each of two independent animal experiments was used to select those genes with the most robust and reproducible change in expression. In each experiment, pooled tissues from three methamphetamine-treated and three control rats were used. In these analyses, standard default settings of the Affymetrix GeneChip Expression Algorithm were used. A gene had to be called “Present” and “Changed,” in at least one out of two experiments and had to have an Average Difference Change greater than 50, as well as a fold change greater than 2 in two out of two experiments. […] The genes that were induced more than two-fold in both experiments were also identified by their GenBank accession numbers, as indicated in Tables 1 and 2.
(§3) After 24 hours, the rats were humanely sacrificed and the brains were harvested.
(§4) Tissues from each brain region from the three animals in each experimental group were pooled (i.e., test and control animals). Total RNA was isolated from the tissue using standard protocols known in the art. Briefly, STAT-60 extraction buffer, and phenol/chloroform extraction was used. cDNA was synthesized and used as templates to produce biotin-labelled antisense cRNAs using an in vitro transcription reaction. After fragmentation, the CRNA hybridization cocktail was prepared, cleaned, and applied to the Affymetrix GeneChip oligonucleotide array.
(§5) A two-fold increase or decrease in expression was chosen as a conventional empirical cut-off. […]

FDFT1 = test: as above; conditions: 24 h, read-out: Fold Induction of FDFT1
Experimental: as §1, §2, §3, §4, §5

MALS-1 = test: as above; conditions: 24 h, read-out: Fold Induction of MALS-1
Experimental: as §1, §2, §3, §4, §5

DBP = test: as above; conditions: 24 h, read-out: Fold Induction of DBP
Experimental: as §1, §2, §3, §4, §5

FGFR1 = test: Gene expression in rat brain after stimulant treatment (Affymetrix U34A GeneChip); assay type: in vivo; conditions: 24 hours after single dose 4 mg/kg
Experimental: as §1
(§6) A two-fold increase or decrease in expression was chosen as a conventional empirical cut-off. Thus, at least a two-fold change in each of two independent animal experiments was used to select those genes with the most robust and reproducible change in expression. In each experiment, pooled tissues from three methamphetamine-treated and three control rats were used. In these analyses, standard default settings of the Affymetrix GeneChip Expression Algorithm were used. A gene had to be called “Present” and “Changed,” in at least one out of two experiments and had to have an Average Difference Change greater than 50, as well as a fold change greater than 2 in two out of two experiments. […] The genes that were induced more than two-fold in both experiments were also identified by their GenBank accession numbers, as indicated in Tables 1 and 2. […]

GRK2 = test: as above; assay type: in vivo; conditions: 24 hours after single dose 4 mg/kg, one value per each of two experiments
Experimental: as §1, §6

POLR2F = test: Gene expression in rat brain after stimulant treatment (Affymetrix U34A GeneChip), amygdala; conditions: 24 h, read-out: Fold Induction of POLR2F
Experimental: as §1, §2, §3, §4
(§7) A two-fold increase or decrease in expression was chosen as a conventional empirical cut-off. Thus, at least a two-fold change in each of two independent animal experiments was used to select those genes with the most robust and reproducible change in expression. In these analyses, standard default settings of the Affymetrix GeneChip Expression Algorithm were used.

FCGRT = test: as above; conditions: 24 h, read-out: Fold Induction of FCGRT
Experimental: as §1, §2, §3, §4, §7

HSPB1 = test: as above; conditions: 24 h, read-out: Fold Induction of HSPB1
Experimental: as §1, §2, §3, §4, §7

NTRK3 = test: as above; conditions: 24 h, read-out: Fold Induction of NTRK3
Experimental: as §1, §2, §3, §4, §7

SULT1A1 = test: as above; conditions: 24 h, read-out: Fold Induction of SULT1A1
Experimental: as §1, §2, §3, §4, §7

ADORA3 = test: as above; conditions: 24 h, read-out: Fold Induction of ADORA3
Experimental: as §1, §2, §3, §4, §7

IGF1 = test: as above; conditions: 24 h, read-out: Fold Induction of IGF1
Experimental: as §1, §2, §3, §4, §7

NDUFS8 = test: as above; conditions: 24 h, read-out: Fold Induction of NDUFS8
Experimental: as §1, §2, §3, §4, §7

FEZ2 = test: as above; conditions: 24 h, read-out: Fold Induction of FEZ2
Experimental: as §1, §2, §3, §4, §7

SMILES: CN[C@@H](C)Cc1ccccc1 [methamphetamine]
- fold induction at 4 mg/kg (GRK3): 14.2
- fold induction at 4 mg/kg (FDFT1): 2.9
- fold induction at 4 mg/kg (MALS-1): 2.9
- fold induction at 4 mg/kg (DBP): 7
- average fold change of FGFR1 expression (FGFR1; average of two experiments): 4.1 fold
- fold increase of FGFR1 expression in one of the two experiments (FGFR1; one of the two experiments): 1.8 fold
- fold changes in GRK2 expression (GRK2): 1.1 fold and 1.0 fold
- fold induction at 4 mg/kg (POLR2F): 3.9
- fold induction at 4 mg/kg (FCGRT): 3.2
- fold induction at 4 mg/kg (HSPB1): 2.8
- fold induction at 4 mg/kg (NTRK3): 2.7
- fold induction at 4 mg/kg (SULT1A1): 4.3
- fold induction at 4 mg/kg (ADORA3): 2.7
- fold induction at 4 mg/kg (IGF1): 3
- fold induction at 4 mg/kg (NDUFS8): 20.8
- fold induction at 4 mg/kg (FEZ2): 2.3
